From ChEMBL document CHEMBL5291721, “A preclinical secondary pharmacology resource illuminates target-adverse drug reaction associations of marketed drugs” (Nat Commun, 2023)

Tests used:
Androgen receptor = molecular target: T1, Androgen receptor (Homo sapiens, UniProt P10275)
T1 sequence (P10275 whole entry): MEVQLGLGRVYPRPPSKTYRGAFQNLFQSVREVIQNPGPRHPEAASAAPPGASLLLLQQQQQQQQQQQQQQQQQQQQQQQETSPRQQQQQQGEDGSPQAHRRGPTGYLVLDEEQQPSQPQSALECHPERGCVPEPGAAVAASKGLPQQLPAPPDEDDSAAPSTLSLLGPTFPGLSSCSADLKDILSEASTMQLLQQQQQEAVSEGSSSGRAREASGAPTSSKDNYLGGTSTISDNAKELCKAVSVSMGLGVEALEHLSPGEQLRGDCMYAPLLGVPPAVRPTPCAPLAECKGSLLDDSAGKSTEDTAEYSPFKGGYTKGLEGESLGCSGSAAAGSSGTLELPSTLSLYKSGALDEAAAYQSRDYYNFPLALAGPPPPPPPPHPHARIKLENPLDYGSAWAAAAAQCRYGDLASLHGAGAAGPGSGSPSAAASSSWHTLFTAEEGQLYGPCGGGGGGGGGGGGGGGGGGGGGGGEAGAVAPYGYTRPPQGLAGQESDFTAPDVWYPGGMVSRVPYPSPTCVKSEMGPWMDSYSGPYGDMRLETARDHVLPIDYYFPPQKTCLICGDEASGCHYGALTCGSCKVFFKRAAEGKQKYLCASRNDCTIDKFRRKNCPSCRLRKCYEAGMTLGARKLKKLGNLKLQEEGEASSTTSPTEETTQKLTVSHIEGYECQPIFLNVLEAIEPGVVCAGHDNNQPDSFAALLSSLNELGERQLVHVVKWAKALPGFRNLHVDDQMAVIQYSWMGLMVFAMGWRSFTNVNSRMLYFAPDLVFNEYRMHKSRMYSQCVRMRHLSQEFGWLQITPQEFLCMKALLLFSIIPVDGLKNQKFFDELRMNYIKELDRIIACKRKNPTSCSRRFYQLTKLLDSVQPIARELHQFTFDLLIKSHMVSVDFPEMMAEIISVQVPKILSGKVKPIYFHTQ

[1] = molecular target: Muscarinic acetylcholine receptor M3 (Homo sapiens, UniProt P20309)
Chain of Muscarinic acetylcholine receptor M3 (P20309 whole entry): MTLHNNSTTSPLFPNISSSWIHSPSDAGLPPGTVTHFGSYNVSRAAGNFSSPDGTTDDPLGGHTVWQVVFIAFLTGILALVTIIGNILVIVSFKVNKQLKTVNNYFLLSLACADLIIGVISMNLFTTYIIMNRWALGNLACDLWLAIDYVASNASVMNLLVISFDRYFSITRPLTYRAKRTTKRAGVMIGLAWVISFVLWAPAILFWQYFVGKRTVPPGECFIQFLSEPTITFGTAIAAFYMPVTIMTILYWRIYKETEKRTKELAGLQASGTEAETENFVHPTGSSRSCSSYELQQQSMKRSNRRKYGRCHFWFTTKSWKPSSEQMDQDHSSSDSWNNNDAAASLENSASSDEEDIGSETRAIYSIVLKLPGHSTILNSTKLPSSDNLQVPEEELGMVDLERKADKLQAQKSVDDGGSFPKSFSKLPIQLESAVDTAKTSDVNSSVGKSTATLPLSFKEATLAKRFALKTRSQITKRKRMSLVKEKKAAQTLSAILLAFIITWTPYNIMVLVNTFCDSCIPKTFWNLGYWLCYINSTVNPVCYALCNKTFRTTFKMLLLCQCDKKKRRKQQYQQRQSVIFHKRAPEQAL

[2] = molecular target: T2, Muscarinic acetylcholine receptor M1 (Homo sapiens, UniProt P11229); assay type: functional
T2 sequence (P11229 whole entry): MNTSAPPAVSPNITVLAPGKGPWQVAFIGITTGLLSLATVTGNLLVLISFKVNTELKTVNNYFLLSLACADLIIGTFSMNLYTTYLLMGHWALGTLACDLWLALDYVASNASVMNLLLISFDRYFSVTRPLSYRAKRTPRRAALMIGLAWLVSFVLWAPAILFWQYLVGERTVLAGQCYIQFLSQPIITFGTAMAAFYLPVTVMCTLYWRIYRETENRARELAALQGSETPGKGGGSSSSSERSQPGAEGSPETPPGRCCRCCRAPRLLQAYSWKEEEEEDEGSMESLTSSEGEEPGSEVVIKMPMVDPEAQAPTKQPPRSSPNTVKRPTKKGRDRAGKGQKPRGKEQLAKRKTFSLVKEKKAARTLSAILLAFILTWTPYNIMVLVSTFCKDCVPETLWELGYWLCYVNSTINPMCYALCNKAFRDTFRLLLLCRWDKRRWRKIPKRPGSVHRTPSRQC

Histamine H1 receptor = Histamine H1 receptor (Homo sapiens, UniProt P35367)
Chain of Histamine H1 receptor (P35367 whole entry): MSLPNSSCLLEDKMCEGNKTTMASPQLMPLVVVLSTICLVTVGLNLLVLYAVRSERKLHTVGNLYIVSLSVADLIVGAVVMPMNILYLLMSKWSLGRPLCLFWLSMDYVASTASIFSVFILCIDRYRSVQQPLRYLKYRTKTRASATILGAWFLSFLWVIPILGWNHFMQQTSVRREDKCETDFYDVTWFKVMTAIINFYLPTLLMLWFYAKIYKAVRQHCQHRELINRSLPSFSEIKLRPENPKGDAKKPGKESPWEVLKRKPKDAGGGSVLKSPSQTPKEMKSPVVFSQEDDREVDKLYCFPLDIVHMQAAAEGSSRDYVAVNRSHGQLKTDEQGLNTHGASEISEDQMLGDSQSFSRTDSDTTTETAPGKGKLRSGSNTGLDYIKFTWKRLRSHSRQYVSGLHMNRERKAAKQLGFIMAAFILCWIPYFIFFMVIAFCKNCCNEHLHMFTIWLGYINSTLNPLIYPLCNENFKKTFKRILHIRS

Endothelin-1 receptor = molecular target: T3, Endothelin-1 receptor (Homo sapiens, UniProt P25101)
T3 sequence (P25101 whole entry): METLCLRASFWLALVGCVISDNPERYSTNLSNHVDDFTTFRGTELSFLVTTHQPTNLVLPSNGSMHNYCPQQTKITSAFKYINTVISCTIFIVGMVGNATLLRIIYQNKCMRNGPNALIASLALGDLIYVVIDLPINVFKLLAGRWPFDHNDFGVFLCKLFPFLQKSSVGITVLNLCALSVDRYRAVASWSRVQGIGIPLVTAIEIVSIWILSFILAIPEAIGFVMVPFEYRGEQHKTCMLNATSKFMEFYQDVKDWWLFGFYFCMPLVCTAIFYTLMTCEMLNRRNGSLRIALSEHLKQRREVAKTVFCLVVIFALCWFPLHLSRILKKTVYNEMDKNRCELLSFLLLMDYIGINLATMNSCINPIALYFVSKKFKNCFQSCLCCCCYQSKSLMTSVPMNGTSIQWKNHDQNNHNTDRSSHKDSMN

Adenosine receptor A1 = molecular target: T4, Adenosine receptor A1 (Homo sapiens, UniProt P30542)
T4 sequence (P30542 whole entry): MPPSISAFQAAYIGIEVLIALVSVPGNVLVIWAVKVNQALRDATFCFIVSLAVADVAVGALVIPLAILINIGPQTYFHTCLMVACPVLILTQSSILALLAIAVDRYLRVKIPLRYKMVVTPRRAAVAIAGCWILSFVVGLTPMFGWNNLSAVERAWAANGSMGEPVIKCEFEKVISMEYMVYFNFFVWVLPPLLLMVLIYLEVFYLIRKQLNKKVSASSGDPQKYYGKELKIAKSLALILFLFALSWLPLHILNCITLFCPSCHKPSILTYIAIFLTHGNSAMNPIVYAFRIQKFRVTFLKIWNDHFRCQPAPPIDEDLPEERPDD

[3] = molecular target: Beta-2 adrenergic receptor (Homo sapiens, UniProt P07550); assay type: functional, cell-based
Chain of Beta-2 adrenergic receptor (P07550 whole entry): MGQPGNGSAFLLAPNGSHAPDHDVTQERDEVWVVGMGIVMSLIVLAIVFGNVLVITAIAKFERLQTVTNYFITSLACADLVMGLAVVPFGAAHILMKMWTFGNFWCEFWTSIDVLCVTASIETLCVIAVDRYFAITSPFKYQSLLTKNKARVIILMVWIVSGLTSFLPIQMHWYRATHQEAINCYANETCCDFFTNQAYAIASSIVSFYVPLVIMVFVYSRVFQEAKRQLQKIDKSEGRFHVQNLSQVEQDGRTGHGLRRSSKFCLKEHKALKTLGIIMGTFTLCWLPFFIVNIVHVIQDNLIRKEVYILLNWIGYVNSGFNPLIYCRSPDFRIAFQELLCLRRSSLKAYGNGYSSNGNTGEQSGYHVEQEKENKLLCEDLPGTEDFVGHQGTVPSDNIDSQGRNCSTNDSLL

[4] = molecular target: T5, 5-hydroxytryptamine receptor 2A (Homo sapiens, UniProt P28223); assay type: functional, cell-based
T5 sequence (P28223 whole entry): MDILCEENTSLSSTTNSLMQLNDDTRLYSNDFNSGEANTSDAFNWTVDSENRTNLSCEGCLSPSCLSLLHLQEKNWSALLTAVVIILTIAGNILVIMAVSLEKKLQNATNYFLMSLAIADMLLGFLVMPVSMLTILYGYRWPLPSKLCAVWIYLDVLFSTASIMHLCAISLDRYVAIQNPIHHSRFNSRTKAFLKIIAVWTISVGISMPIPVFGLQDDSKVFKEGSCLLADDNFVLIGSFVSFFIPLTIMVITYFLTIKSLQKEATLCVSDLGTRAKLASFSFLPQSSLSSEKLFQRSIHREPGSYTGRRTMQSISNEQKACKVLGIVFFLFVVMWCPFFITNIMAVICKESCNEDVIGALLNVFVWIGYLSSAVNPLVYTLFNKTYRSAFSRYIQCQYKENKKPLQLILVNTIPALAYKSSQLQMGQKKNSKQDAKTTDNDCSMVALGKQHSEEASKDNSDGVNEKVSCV

[5] = molecular target: T5, 5-hydroxytryptamine receptor 2A; assay type: functional, cell-based; remark: listed apart in the source
Also: assay procedure not described here.

Row | Compound | AC50 (Androgen receptor) | AC50 [1] | AC50 [2] | AC50 (Histamine H1 receptor) | AC50 (Endothelin-1 receptor) | AC50 (Adenosine receptor A1) | AC50 [3] | AC50 [4] | AC50 [5]
1 | C[C@@H]1C[C@H]2[C@@H]3C[C@H](F)C4=CC(=O)C=C[C@]4(C)[C@@]3(F)[C@@H](O)C[C@]2(C)[C@@]1(OC(=O)c1ccco1)C(=O)SCF [FLUTICASONE FUROATE] | 0.13 µM | > 30 µM | > 10 µM | > 10 µM | > 10 µM | > 30 µM | – | – | –
2 | O=S1(=O)CCN(CN2CCS(=O)(=O)NC2)CN1 [TAUROLIDINE] | > 30 µM | > 30 µM | > 30 µM | 4.6 µM | – | > 30 µM | > 30 µM | > 30 µM | > 30 µM
3 | O=C(/C=C/c1cccc(S(=O)(=O)Nc2ccccc2)c1)NO [BELINOSTAT] | > 30 µM | > 30 µM | > 10 µM | > 10 µM | > 10 µM | > 30 µM | – | – | –
4 | COC(=O)C[C@](O)(CCCC(C)(C)O)C(=O)O[C@@H]1C(OC)=C[C@]23CCCN2CCc2cc4c(cc2[C@H]13)OCO4 [OMACETAXINE MEPESUCCINATE] | > 30 µM | – | – | – | – | > 30 µM | – | – | –
